Molecules are shown by their SMILES.

Assay [1] has as its system Nucleic Acid. The assay can be described thus: Binding affinity to polyG-polyC double stranded RNA by thermal denaturation assay. It counts as nucleic-acid assay.
A further assay has as its system DNA. The assay can be described thus: Binding affinity to calf thymus DNA by thermal denaturation assay. It counts as nucleic-acid assay. The settings on record: Bos taurus.
A short description of assay [2]: Binding affinity to polydA-polydT DNA by thermal denaturation assay.
For assay [3], the system named is Nucleic Acid. The assay can be described thus: Binding affinity to polyA-polyU double stranded RNA by thermal denaturation assay. It is filed as nucleic-acid assay.

For the compound `N=C(N)NC(=O)c1ccc(C(=O)NCCCCNC(=O)c2ccc3ccc4cccc5ccc2c3c45)[nH]1`, the log K (in the assay with Nucleic Acid [1]; in the assay on DNA; in assay [2]; in the assay with Nucleic Acid [3]) was 5.1 each time. The ΔTm was 7.3 °C in the assay with DNA and -1.5 °C with Nucleic Acid [3].

Source of the values: ChEMBL document CHEMBL1145599, “A novel pyrene-guanidiniocarbonyl-pyrrole cation efficiently differentiates between ds-DNA and ds-RNA by two independent, sensitive spectroscopic methods” (Bioorg Med Chem Lett, 2008).
